The text below walks through data of patent US7803801B2, “Aminopyridine compounds having Syk inhibitory activity” (Japan Tobacco, Inc., priority 2005, dated 2010).

Test [1] has as its target GST-Syk Full Protein (human) (Homo sapiens, UniProt P43405). Description: Syk kinase inhibition test (HTRF method). It is filed as biochemical. In a few lines:
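HTRF read-out: after EDTA termination and 1 h with XL665-streptavidin and Eu-anti-phosphotyrosine, the 665/620 nm ratio was measured. The reaction ran 30 min at 20–25 °C with final 6.4 nM human GST-Syk, 250 nM biotinylated peptide, 100 μM ATP, pH 7.0 HEPES buffer, 2% DMSO.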
Background: Time-resolved FRET reads energy transfer from a long-lived donor to a nearby acceptor.

Test [2] concerns cultured human mast cells. Description: Degranulation inhibition test using cultured human mast cells (IgE cross-linking, β-Hexosaminidase release). It is filed as cell-based. The settings on record: Mast cell, cultured human mast cells, read-out: human degranulation ave. IC50. In a few lines: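 Degranulation was triggered by anti-hIgE (10 μg/mL final, 30 min, 37 °C) after a 10-min compound pretreatment (DMSO 0.1%) of cord-blood CD34+-derived mast cells primed 5 days with IL-4 and IgE. β-Hexosaminidase in supernatant was measured with p-nitrophenyl-GlcNAc substrate (A405), expressed against water-lysed total; IC50 (M).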

Where [3] appears, read: HTRF, 100 μM ATP, 30 min room temperature, average, read-out: sykHTRF ave IC50.
Setting [4] is: anti-hIgE stimulation, β-Hexosaminidase index, average.
The mark [5] stands for this setting: Tables 1-x, compounds A, read-out: sykHTRF ave IC50.
The mark [6] stands for this setting: Tables 2-x, thiophene compounds B, read-out: sykHTRK ave IC50.
Setting [7] is: Tables 2-x, thiophene compounds B.

Where a name gives a salt, the structure may show the parent alone. Read-outs that look alike come from different tables or passages of the source. Some results are limits rather than exact numbers.

As to `COC(=O)C(C)(C)NC(=O)c1ncc(-c2cccc(Nc3cc(C)ccn3)n2)s1` [Compound A-153], the figures for the IC50 in test [1] (setting [3]) and in test [2] (setting [4]) were 100 to 1000 nM and > 1000 nM, respectively.
Taken in the same sequence, the figures for `Cc1ccnc(Nc2cccc(-c3cnc(CC(=O)N4CCC(O)CC4)s3)n2)c1` [Compound A-230] were 100 to 1000 nM and > 1000 nM.
As to `Cc1ccnc(Nc2cccc(-c3cnc([C@@H]4COC(=O)N4C)s3)n2)c1` [Compound A-11], the IC50 in test [1] (setting [3]) and in test [2] (setting [4]) was 100 to 1000 nM in each case.
As for `CC(O)c1ccnc(Nc2cccc(-c3cnc(N4CC[C@@H](O)C4)s3)n2)c1` (stereo partly drawn) [Compound A-554, (R)-1-(5-{6-[4-(1-hydroxyethyl)pyridin-2-ylamino]pyridin-2-yl}thiazol-2-yl)pyrrolidin-3-ol], the IC50 in test [1] (setting [5]) was < 100 nM; in test [2] (Tables 1-x, compounds A), 100 to 1000 nM.
Consider `Cc1ccnc(Nc2cccc(-c3cnc([C@H](C)NC(C)C)s3)n2)c1` [Compound A-65], for which the IC50 in test [1] (setting [3]) and in test [2] (setting [4]) was 100 to 1000 nM throughout.
As for `CC(=O)N[C@@H](C)c1ncc(-c2cccc(Nc3cc(-c4ccncc4)ccn3)n2)s1` [Compound A-79, N—((S)-1-{5-[6-([4,4′]bipyridinyl-2-ylamino)pyridin-2-yl]thiazol-2-yl}ethyl)acetamide], the IC50 is < 100 nM in test [1] (setting [3]) and 100 to 1000 nM in test [2] (setting [4]).
Regarding `Cc1ccnc(Nc2cccc(-c3cnc(N(C)Cc4ccc(C(=O)O)s4)s3)n2)c1` [Compound A-603, 5-[(N-methyl-N-{5-[6-(4-methylpyridin-2-ylamino)pyridin-2-yl]thiazol-2-yl}amino)methyl]thiophene-2-carboxylic acid], the IC50 was < 100 nM in test [1] (setting [5]) and > 1000 nM in test [2] (Tables 1-x, compounds A).
For `CC(=O)N(C)c1ncc(-c2cccc(Nc3cc(C)ccn3)n2)s1` [Compound A-424, N-methyl-N-{5-[6-(4-methylpyridin-2-ylamino)pyridin-2-yl]thiazol-2-yl}acetamide], the values for the IC50 in test [1] (setting [3]) and in test [2] (setting [4]) were < 100 nM and 100 to 1000 nM, respectively.
Consider `CC(=O)N1CCN(c2ncc(-c3cccc(Nc4cc(Cl)ccn4)n3)s2)CC1` [Compound A-443, 1-(4-{5-[6-(4-chloropyridin-2-ylamino)pyridin-2-yl]thiazol-2-yl}piperazin-1-yl)ethanone], for which the IC50 is < 100 nM in test [1] (setting [5]) and 100 to 1000 nM in test [2] (Tables 1-x, compounds A).
`CC(=O)O[C@@H](C)c1ncc(-c2cccc(Nc3cc(C)ccn3)n2)s1` [Compound A-25, acetic acid(S)-1-{5-[6-(4-methylpyridin-2-ylamino)pyridin-2-yl]thiazol-2-yl}ethyl ester]: the IC50 in test [1] (setting [3]) is < 100 nM; in test [2] (setting [4]), 100 to 1000 nM.
`Cc1ccnc(Nc2cccc(-c3cnc([C@H](C)NC(=O)Cc4ccc(O)cc4)s3)n2)c1` [Compound A-352]: the IC50 in test [1] (setting [3]) and in test [2] (setting [4]) was 100 to 1000 nM throughout.
For `COC(=O)c1cc(Br)nc(Nc2cccc(-c3ccc(C(C)=O)s3)n2)c1` [Compound B-44], the IC50 in test [1] (setting [6]) and in test [2] (setting [7]) was > 1000 nM in each case.
For the compound `CC(=O)c1ccc(-c2cccc(Nc3cc(Cl)ccn3)n2)s1` [Compound B-74, 1-{5-[6-(4-chloropyridin-2-ylamino)pyridin-2-yl]thiophen-2-yl}ethanone], the IC50 in test [1] (setting [6]) was < 100 nM; in test [2] (setting [7]) it was 100 to 1000 nM.
As for `Cc1ccnc(Nc2cccc(-c3cnc(C4CCC(=O)CC4)s3)n2)c1` [Compound A-60], the IC50 in test [1] (setting [3]) and in test [2] (setting [4]) was 100 to 1000 nM each time.
As for `Cc1ccnc(Nc2cccc(-c3cnc(N4CCC(C(=O)N5CCC(O)CC5)CC4)s3)n2)c1` [Compound A-420], the IC50 was 100 to 1000 nM in test [1] (setting [5]) and > 1000 nM in test [2] (Tables 1-x, compounds A).
As for `CC(=O)N(CCC(=O)O)Cc1ncc(-c2cccc(Nc3cc(C)ccn3)n2)s1` [Compound A-181], the IC50 in test [1] (setting [3]) was 100 to 1000 nM; in test [2] (setting [4]), > 1000 nM.
Take `CO/N=C(\C)c1ccc(-c2cccc(Nc3cc(N(C)C)ncn3)n2)s1` [Compound B-32]: the IC50 in test [1] (setting [6]) and in test [2] (setting [7]) was > 1000 nM each time.
For the compound `Cc1ccnc(Nc2cccc(-c3cnc(C4CCN(C)CC4)s3)n2)c1` [Compound A-183], the IC50 is 100 to 1000 nM in test [1] (setting [3]) and > 1000 nM in test [2] (setting [4]).
For `COC(=O)[C@H]1CC[C@H](c2ncc(-c3cccc(Nc4cc(C)ccn4)n3)s2)CC1` [Compound A-6, trans-4-{5-[6-(4-methylpyridin-2-ylamino)pyridin-2-yl]thiazol-2-yl}cyclohexanecarboxylic acid methyl ester], the IC50 in test [1] (setting [3]) and in test [2] (setting [4]) was 100 to 1000 nM in each case.
Turning to `Cc1ccnc(Nc2cccc(-c3cnc(CCC4CCC(C(=O)O)CC4)s3)n2)c1` (stereo not shown) [Compound A-612, 4-(2-{5-[6-(4-methylpyridin-2-ylamino)pyridin-2-yl]thiazol-2-yl}ethyl)cyclohexanecarboxylic acid], the IC50 in test [1] (setting [5]) is < 100 nM; in test [2] (Tables 1-x, compounds A), > 1000 nM.
As for `Cc1ccnc(Nc2cccc(-c3cnc(C(=O)C(C)C)s3)n2)c1` [Compound A-83], the half-inhibitory concentration (IC50) in test [1] (setting [3]) is 100 to 1000 nM; in test [2] (setting [4]) it was > 1000 nM.
`CC(=O)N1CCC(N(CCNS(C)(=O)=O)c2ncc(-c3cccc(Nc4cc(C)ccn4)n3)s2)CC1` [Compound A-524, N-[2-(N′-(1-acetylpiperidin-4-yl)-N′-{5-[6-(4-methylpyridin-2-ylamino)pyridin-2-yl]thiazol-2-yl}amino)ethyl]methanesulfonamide]: the IC50 in test [1] (setting [5]) is < 100 nM; in test [2] (Tables 1-x, compounds A), > 1000 nM.
As for `Cc1ccnc(Nc2cccc(-c3cnc(C4CCN(C(=O)CC(=O)O)CC4)s3)n2)c1` [Compound A-192, 3-(4-{5-[6-(4-methylpyridin-2-ylamino)pyridin-2-yl]thiazol-2-yl}piperidin-1-yl)-3-oxopropionic acid hydrochloride], the IC50 is < 100 nM in test [1] (setting [3]) and > 1000 nM in test [2] (setting [4]).
Take `Cc1ccnc(Nc2cccc(-c3cnc(CNCc4ccc(C(=O)O)cc4)s3)n2)c1` [Compound A-288]: the IC50 was 100 to 1000 nM in test [1] (setting [3]) and > 1000 nM in test [2] (setting [4]).
On to `Cc1ccnc(Nc2cccc(-c3cnc(N(CC(N)=O)[C@H]4CC[C@@H](C(=O)O)CC4)s3)n2)c1` [Compound A-598, cis-4-(N-carbamoylmethyl-N-{5-[6-(4-methylpyridin-2-ylamino)pyridin-2-yl]thiazol-2-yl}amino)cyclohexanecarboxylic acid], for which the IC50 in test [1] (setting [5]) is < 100 nM; in test [2] (Tables 1-x, compounds A), > 1000 nM.
Regarding `Cc1ccnc(Nc2cccc(-c3cnc(CN4CCC(NC(=O)CO)CC4)s3)n2)c1` [Compound A-247], the IC50 in test [1] (setting [3]) and in test [2] (setting [4]) was 100 to 1000 nM throughout.
Regarding `CO[C@@H]1CCN(c2ncc(-c3cccc(Nc4cc(C)ccn4)n3)s2)C1` [Compound A-490, N-{6-[2-((R)-3-methoxypyrrolidin-1-yl)thiazol-5-yl]pyridin-2-yl}-N-(4-methylpyridin-2-yl)amine], the IC50 in test [1] (setting [5]) was < 100 nM; in test [2] (Tables 1-x, compounds A) it was 100 to 1000 nM.
For `Cc1ccnc(Nc2cccc(-c3cnc(CCc4ccc(O)cc4)s3)n2)c1` [Compound A-135, 4-(2-{5-[6-(4-methylpyridin-2-ylamino)pyridin-2-yl]thiazol-2-yl}ethyl)phenol], the IC50 was < 100 nM in test [1] (setting [3]) and 100 to 1000 nM in test [2] (setting [4]).
`Cc1ccnc(Nc2cccc(-c3cnc(CN4CCC(NS(C)(=O)=O)CC4)s3)n2)c1` [Compound A-236]: the IC50 in test [1] (setting [3]) and in test [2] (setting [4]) was 100 to 1000 nM throughout.
For `Cc1ccnc(Nc2cccc(-c3cnc([C@H]4CC[C@H](C(=O)N5CCC(N(C)C)C5)CC4)s3)n2)c1` (stereo partly shown) [Compound A-287], the IC50 in test [1] (setting [3]) and in test [2] (setting [4]) was 100 to 1000 nM throughout.
Take `COc1ccc(C[C@H](N)c2ncc(-c3cccc(Nc4cc(C)ccn4)n3)s2)cc1` [Compound A-134]: the IC50 in test [1] (setting [3]) was 100 to 1000 nM; in test [2] (setting [4]) it was > 1000 nM.
Consider `Cc1ccnc(Nc2cccc(-c3cnc(COc4ccc(C(=O)O)cc4)s3)n2)c1` [Compound A-605, 4-{5-[6-(4-methylpyridin-2-ylamino)pyridin-2-yl]thiazol-2-ylmethoxy}benzoic acid], for which the IC50 was < 100 nM in test [1] (setting [5]) and > 1000 nM in test [2] (Tables 1-x, compounds A).
In the case of `CCOC(=O)c1nc([C@H](C)N)sc1-c1cccc(Nc2cc(C)ccn2)n1` [Compound A-101], the IC50 in test [1] (setting [3]) and in test [2] (setting [4]) was > 1000 nM in each case.
On to `Cc1ccnc(Nc2cccc(-c3cnc(N4CCC[C@@H](CC(=O)O)C4)s3)n2)c1` [Compound A-567, ((S)-1-{5-[6-(4-methylpyridin-2-ylamino)pyridin-2-yl]thiazol-2-yl}piperidin-3-yl)acetic acid], for which the IC50 in test [1] (setting [5]) was < 100 nM; in test [2] (Tables 1-x, compounds A), 100 to 1000 nM.
As to `Cc1ccnc(Nc2cccc(-c3cnc(CCc4ccc(N)cc4)s3)n2)c1` [Compound A-218], the IC50 in test [1] (setting [3]) and in test [2] (setting [4]) was 100 to 1000 nM throughout.
As for `CC(=O)N1CCN(c2ncc(-c3cccc(Nc4cc(C)ccn4)n3)s2)CC1` [Compound A-419, 1-(4-{5-[6-(4-methylpyridin-2-ylamino)pyridin-2-yl]thiazol-2-yl}piperazin-1-yl)ethanone], the IC50 in test [1] (setting [5]) is < 100 nM; in test [2] (Tables 1-x, compounds A) it was 100 to 1000 nM.
As to `CCC(=O)Nc1nc(C)c(-c2cccc(Nc3cc(C)ccn3)n2)s1` [Compound A-19, N-{4-methyl-5-[6-(4-methylpyridin-2-ylamino)pyridin-2-yl]thiazol-2-yl}propionamide], the IC50 in test [1] (setting [3]) is < 100 nM; in test [2] (setting [4]), 100 to 1000 nM.
As to `Cc1ccnc(Nc2cccc(-c3cnc([C@H](C)NC(=O)C(C)C)s3)n2)c1` [Compound A-31], the concentration for half-maximal inhibition (IC50) in test [1] (setting [3]) and in test [2] (setting [4]) was 100 to 1000 nM throughout.

What is called IC50 is the concentration that gives 50% inhibition.
